From patent US8044100B2, “Methods and compositions for treating amyloid-related diseases” (Bellus Health Inc., priority 2004, dated 2011) come the findings set out here.

One test addresses T1, NAC peptide (Homo sapiens, UniProt P37840).
T1 construct: NAC is a 35 amino acid long peptide with highly hydrophobic stretches
Description: Binding to NAC peptide by electrospray mass spectrometry. The note with it: 5:1 ratio compound:NAC (100 μM:20 μM or 200 μM:40 μM), pH 7.4; bound complex peak area / unbound NAC peak area. The protocol:
The ability of the compounds of the present invention to bind to NAC peptide in aqueous solution was evaluated. The binding ability correlates to the intensities of the peptide-compound complex peaks observed by the Electrospray Mass Spectrum. Millipore distilled deionized water was used to prepare all aqueous solutions. For pH determination a Beckman Φ36 pH meter fitted with a Corning Semi-Micro Combination pH Electrode was employed.
The optimal cone voltage was determined to be 20V.
Mass spectrometry—Mass spectrometric analysis was performed using a Waters ZQ 4000 mass spectrometer equipped with a Waters 2795 sample manager. MassLynx 4.0 (earlier by MassLynx 3.5) was used for data processing and analysis. Test compounds were mixed with disaggregated peptides in aqueous media (6.6% EtOH) at a 5:1 ratio (20 μM NAC:100 μM of test compound or 40 μM NAC:200 μM of test compound). The pH of the mixture was adjusted to 7.4 (+0.2) using 0.1% NaOH (3-5 μL). Periodically, NAC peptide solution at 20 μM or 40 μM was also prepared in the same fashion and run as control. The spectra were obtained by introducing the solutions to the electrospray source by direct infusion using a syringe pump at a flow rate of 25 μl/min, and scanning from 100 to 2100 Da in the positive mode. The scan time was 0.9 sec per scan with an inter-scan delay of 0.1 sec and the run time was 5 min for each sample. All the mass spectra were sum of 300 scans. The desolvation and source temperature was 70° C. and the cone and capillary voltage were maintained at 20 V and 3.2 kV respectively.
The total area under the peaks for the bound NAC-compound complex divided by total area under the peaks for unbound NAC was determined for each compound tested.

Test [1] deals with Aβ peptides (Aβ40, Aβ42) in the plasma and brain of TgCRND8 mice. As to the kind of experiment: Long term treatment (8 or 16 weeks) in TgCRND8 mice: Aβ levels in plasma and brain. The class given is in vivo, mouse. The note with it: BX subcutaneous, BW and BZ oral. As for the experimental part:
The long-term therapeutic effects of compounds of the present invention on cerebral amyloid deposition and β-amyloid (Aβ) levels in the plasma and in the brains of transgenic mice, TgCRND8, expressing the human amyloid precursor protein (hAPP) was studied. These compounds were administered over an 8 or 16 week period at the end of which the levels of Aβ peptides in the plasma and brain of TgCRND8 animals were determined. The goal of this study was to evaluate the efficacy of the compounds at modulating the progression of the amyloidogenic process in the brain and in the plasma of a transgenic mouse model of Alzheimer's disease (AD)
The mice used in the study consisted of animals bearing one copy of the hAPP gene (+/−) from the 2nd and 3rd generation progenies (N2 and N3) derived from backcrosses from TgCRND8.FVB(N2)AJ(N3) with B6AF1/J hybrid animals. • N1=TgCRND8.FVB(N2)AJ(N3)×B6AF1/J • N2=TgCRND8.FVB(N2)AJ(N3).B6AF1/J(N1)×B6AF1/J • N3=TgCRND8.FVB(N2)AJ(N3).B6AF1/J(N2)×B6AF1/J
The following abbreviations are used to designate these animals in the present study: TgCRND8.B6AF1/J(N2); TgCRND8.B6AF1/J(N3). Male and female transgenic mice were given daily subcutaneous (compound BX) or oral (compounds BW and BZ) administrations of the appropriate compounds for 8 or 16 weeks.
Baseline animals consisted of 9±1 week old naive TgCRND8.B6AF1/J animals from the 2nd and 3rd generations. These mice were used to determine the extent of cerebral amyloid deposits and Aβ levels in the plasma and brain of naive transgenic animals at the initiation of treatment.
Starting at 9 weeks of age (+1 week) animals received daily administration of their respective treatment for a period of 8 or 16 weeks, at a dose of 30 or 100 mg/kg at 10 ml/kg. The route of administration was subcutaneous for water-soluble compounds (Compound BX) and oral for compounds solubilized in methylcellulose 1% (MC 1%) (Compounds BW and BZ). At the end of the treatment periods, plasma and perfused brains were collected for quantification of Aβ levels.
Animal health was monitored, samples were collected and Aβ levels were measured as described above in the short term treatment study. Compounds were scored based on their ability to modulate levels of Aβ peptides in the plasma and the cerebral soluble/insoluble levels in the brain. Levels of Aβ observed in the plasma and brain of treated animals were compared to that of vehicle-treated (water) or methylcellulose-treated control groups and ranked according to the strength of the pharmacological effect. Increases in the levels of Aβ peptides are indicated using “+” symbols, while decreases in the levels of Aβ peptides are indicated using “−” symbols. The strongest effects are recorded as “+++” or “−−−” while the weakest are shown as “+” or “−”.
Specifically, increases in the levels of Aβ (relative to vehicle treated control) of 5 to 14% are scored as “+”; increases of 15 to 29% are scored as “++”; and increases of 30% or higher are scored as “+++”. Decreases in the levels of Aβ of 5 to 14% are scored as “−”; decreases of 15 to 29% are scored as “−−”; and decreases of 30% or more are scored as “−−−”. Additionally, changes of 4% or less in either direction are scored as “0”.

For test [2] the test system is unchanged. As to the kind of experiment: Short term treatment (14 or 28 days) in TgCRND8 mice: Aβ levels in plasma and brain by ELISA.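 For Aβ40 Change Insoluble: symbols grade percent change in Aβ versus untreated control with plus for increase and minus for decrease.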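 For Aβ40 Change Soluble: symbols grade percent change in Aβ versus untreated control with plus for increase and minus for decrease.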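 For Aβ42 Change Insoluble: symbols grade percent change in Aβ versus untreated control with plus for increase and minus for decrease.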 In kind it is in vivo, mouse. As for the experimental part: The short term therapeutic effect of 19 compounds of the invention was studied. These compounds were administered over a 14 or 28 day period at the end of which the levels of Aβ peptides in the plasma and brain of TgCRND8 animals were determined.
Male and female transgenic mice from the 3rd and 4th B6C3F1 generations were used in this example and given daily subcutaneous or oral administrations of one of a series of compounds for 14 or 28 days. The following abbreviations are used to designate these animals from the 3rd and 4th generation backcross in the present protocol: TgCRND8-2.B6C3F1(N3); TgCRND8-2.B6C3F1 (N4).
Baseline animals (Group 1) consisted of naive TgCRND8-2. B6C3F1(N3) at 11±1 weeks of age. These mice were used to determine the Aβ levels in the plasma and brain of naive transgenic animals at the initiation of treatment.
Starting at 11 weeks of age (±1 week) animals received daily administration of their respective treatment for a period of 14 or 28 days (groups 2-21), at a dose of 250 mg/kg at 10 ml/kg or of vehicle only (water; group 2) or 1% methyl cellulose only (group 21). The route of administration was subcutaneous for water-soluble compounds and oral for compounds solubilized in methylcellulose 1%. (MC 1%). At the end of the treatment periods, plasma and perfused brains were collected for quantification of Aβ levels.
At 11±1 weeks of age for the Baseline group, and at the end of the treatment period (14 or 28 days) for Groups 2 to 21, at 24 hours after the last compound administration animals were sacrificed and samples collected. An approximate blood volume of 500 μl was collected from the orbital sinus and kept on ice until centrifugation at 4° C. at a minimum speed of 3,000 rpm for 10 minutes. Plasma samples were immediately frozen and stored at −80° C. pending analysis. The brains were removed, frozen, and stored at −80° C. awaiting analysis.
Brains were weighted frozen and homogenized with 4 volumes of ice cold 50 mM Tris-Cl pH 8.0 buffer with protease inhibitor cocktail (4 mL of buffer for 1 g of wet brain). Samples were spun at 15000 g for 20 minutes and the supernatants were transferred to fresh tubes. One hundred fifty (150) μl from each supernatant were mixed with 250 μl of 8M guanidine-HCL/50 mM Tris-HCL pH 8.0 (ratio of 0.6 vol supernatant:1 vol 8M guanidium/Tris-HCL 50 mM pH8.0) and 400 μL 5 M guanidium/Tris-HCL 50 mM pH8.0 were added. The tubes were vortexed for 30 seconds and frozen at −80° C. In parallel, pellets were treated with 7 volumes of 5 M guanidine-HCL/50 mM Tris-HCL pH 8.0 (7 mL of guanidine for 1 g of wet brain), vortexed for 30 seconds and frozen at −80° C. Samples were thawed at room temperature, sonicated at 80° C. for 15 minutes and frozen again. This cycle was repeated 3 times to ensure homogeneity and samples were returned to −80° C. pending analysis.
Aβ levels were evaluated in plasma and brain samples by ELISA using Human Aβ40 and Aβ42 Fluorometric ELISA kits from Biosource (Cat. No. 89-344 and 89-348) according to manufacturer's recommended procedures. In short, samples were thawed at room temperature, sonicated for 5 minutes at 80° C. (sonication for brain homogenates; no sonication for plasma samples) and kept on ice. Aβ peptides were captured using 100 μl of the diluted samples to the plate and incubated without shaking at 4° C. overnight. The samples were aspirated and the wells were rinsed 4 times with wash buffer obtained from the Biosource ELISA kit. The anti-Aβ40 or anti-Aβ42 rabbit polyclonal antiserum (specific for the Aβ40 or Aβ42 peptide) was added (100 μl) and the plate was incubated at room temperature for 2 hours with shaking. The wells were aspirated and washed 4 times before adding 100 μl of the alkaline phosphatase labeled anti-rabbit antibody and incubating at room temperature for 2 hours with shaking. The plates were then rinsed 5 times and the fluorescent substrate (100 μl) was added to the plate. […]

The mark [3] stands for this setting: brain homogenate, Day 14, methylcellulose group, daily oral.
Where [4] appears, read: brain homogenate, Day 28, methylcellulose group, daily oral.
The mark [5] stands for this setting: plasma, Day 28, methylcellulose group, daily oral.

`O=S(=O)([O-])CCCCS(=O)(=O)[O-].[Na+].[Na+]` [NaO3SCH2(CH2)2CH2SO3Na]: at NAC peptide, the “Binding Strength” value was “− (None; when the total binding is between 30% and 0%)”.

Turning to `O=S(=O)(O)CC(O)CNC1CCCCC1` (stereo not drawn) [drawing 751], the “Binding Strength” value at NAC peptide is “+++ (Strong; when the total binding is 120% and higher)”.

For `O=S(=O)(O)CCCNC1C2CC3CC(C2)CC1C3` (stereo not drawn) [drawing 749], the “Binding Strength” value on NAC peptide is “++ (Moderate; when the total binding is between 120% and 70%)”.

Consider `NCCOS(=O)(=O)O` [NH2CH2CH2OSO3H], for which, at NAC peptide, the “Binding Strength” value is “− (None; when the total binding is between 30% and 0%)”.

As to `O=S(=O)(O)CCCNC1C2CC3CC(C2)CC1C3` (stereo not drawn) [BZ], in test [1] (30 mg/kg daily, 8 wks), the “Brain Abeta40 insoluble” value was “−− (decreases of 15 to 29%)”, the “Brain Abeta40 soluble” value is 0 (changes of 4% or less in either direction), the “Brain Abeta42 insoluble” value is reported as “−−− (decreases of 30% or more)” and the “Brain Abeta42 soluble” value is reported as 0 (changes of 4% or less in either direction). Further, in test [1] (30 mg/kg daily, 8 wks), the “Plasma Abeta40” value is 0 (changes of 4% or less in either direction) and the “Plasma Abeta42” value is given as 0 (changes of 4% or less in either direction). Moreover, in test [1] (30 mg/kg daily, 16 wks), the “Brain Abeta40 insoluble” value is given as “+ (increases in the levels of Aβ (relative to vehicle treated control) of 5 to 14%)”, the “Brain Abeta40 soluble” value is listed as 0 (changes of 4% or less in either direction), the “Brain Abeta42 insoluble” value is 0 (changes of 4% or less in either direction) and the “Brain Abeta42 soluble” value is listed as “+ (increases in the levels of Aβ (relative to vehicle treated control) of 5 to 14%)”. Moreover, in test [1] (30 mg/kg daily, 16 wks), the “Plasma Abeta40” value is 0 (changes of 4% or less in either direction) and the “Plasma Abeta42” value is “+ (increases in the levels of Aβ (relative to vehicle treated control) of 5 to 14%)”. In addition, in test [1] (100 mg/kg daily, 8 wks), the “Brain Abeta40 insoluble” value is 0 (changes of 4% or less in either direction), the “Brain Abeta40 soluble” value was “++ (increases of 15 to 29%)”, the “Brain Abeta42 insoluble” value was “− (Decreases in the levels of Aβ of 5 to 14%)” and the “Brain Abeta42 soluble” value is 0 (changes of 4% or less in either direction). In test [1] (100 mg/kg daily, 8 wks), the “Plasma Abeta40” value is “++ (increases of 15 to 29%)” and the “Plasma Abeta42” value is reported as “+++ (increases of 30% or higher)”. For the same compound, in test [1] (100 mg/kg daily, 16 wks), the “Brain Abeta40 insoluble” value is on record as 0 (changes of 4% or less in either direction), the “Brain Abeta40 soluble” value was “−− (decreases of 15 to 29%)”, the “Brain Abeta42 insoluble” value is reported as “+ (increases in the levels of Aβ (relative to vehicle treated control) of 5 to 14%)” and the “Brain Abeta42 soluble” value was “− (Decreases in the levels of Aβ of 5 to 14%)”. Besides, in test [1] (100 mg/kg daily, 16 wks), the “Plasma Abeta40” value is “++ (increases of 15 to 29%)” and the “Plasma Abeta42” value is “++ (increases of 15 to 29%)”. Further, in test [2] (setting [3]), the “Aβ40 Change Insoluble” value was “−−− (decreases of 39% or more)” and the “Aβ42 Change Insoluble” value is listed as “−− (decreases of 20 to 38%)”. In addition, in test [2] (setting [4]), the “Aβ40 Change Insoluble” value is on record as “−− (decreases of 20 to 38%)”, the “Aβ40 Change Soluble” value was “−− (decreases of 20 to 38%)” and the “Aβ42 Change Insoluble” value is on record as “−− (decreases of 20 to 38%)”. For the same compound, in test [2] (plasma, Day 14, methylcellulose group, 250 mg/kg daily oral), the “Aβ40 Change” value is “+ (increases in the levels of Aβ (relative to untreated control) of 20 to 39%)”. Moreover, in test [2] (setting [5]), the “Aβ40 Change” value was “++ (increases of 40 to 69%)” and the “Aβ42 Change” value is recorded as “++ (increases of 40 to 69%)”.

Take `NCCCCS(=O)(=O)O`: the “Binding Strength” value at NAC peptide was “+ (Weak; when the total binding is between 70% and 30%)”.

Consider `CC(C)(C)NCCCS(=O)(=O)O` [drawing 748], for which, at NAC peptide, the “Binding Strength” value is “++ (Moderate; when the total binding is between 120% and 70%)”.

As for `NCCCOS(=O)(=O)[O-].[Na+]` [H2NCH2CH2CH2OSO3Na], at NAC peptide, the “Binding Strength” value is “++ (Moderate; when the total binding is between 120% and 70%)”.
